Source: patent publication EP2631232B1, “Halogen derivatives of benzo[b]furans useful as anti-neoplastic or anti-proliferative drugs” (Centrum Badan Molekularnych I Makromolekularnych Pan, priority 2012, dated 2013)

How the values were obtained:
[1] = tested on: HeLa cells (uterine cervix cancer); assay: MTT cytotoxicity test, HeLa cells; assay type: cell-based; conditions: for toxicity to HeLa cells (in words): 48 hours of incubation; for IC50: Homo sapiens, MTT, 48h incubation
Method: (§1) A number of halogen derivatives of benzo[b]furans were tested for cytotoxic properties against four cell lines. The tests were conducted by means of MTT where yellow tetrazole salt was processed by the dehydrogenases in mitochondria of live cells into violet formazan, in cell lines mentioned below: • HeLa cells (uterine cervix cancer); • HL60 cells (human acute myelogenous leukaemia); • K562 cells (human chronic myelogenous leukaemia), and • HUVEC cells (normal human endothelial cells). • 1. HeLa, K562, HL 60, and HUVEC cells, 7 thousand cells per well (in 200 µl of the medium) were disseminated on 96-well plates. Cells were incubated overnight in the incubator (37°C, 5% CO2). • 2. Test compounds were dissolved in DMSO; 2µL solution amounts were added to the cells. Final concentrations of the culture: 1mM, 10µM, 100nM, 1nM. Control: DMSO-containing cells, final concentration of which amounted to 1% in the culture. • 3. Cytotoxicity test (MTT) of test compounds after 48h incubation. After 48h incubation of HeLa, K562, HL60, or HUVEC cells with test compounds, 25 µl of MTT per well added (input concentration = 5mg/ml) to the mixture. MTT, yellow tetrazole salt was reduced to violet formazan by mitochondrial dehydrogenases of live cells; the volume of formazan was measured spectrophotometrically. After 2h incubation of cells with MTT in the incubator (37°C; 5% CO2), cells were lysed in lysing buffer containing SDS and DMF (95 µl/well). The lysis was conducted overnight at 37°C and with 5% CO2. • 4. MTT results were taken from FLUOstar Omega reader (wavelengths: 570 and 650 nm). Absorbance measured at 570 nm was proportional to the number of live cells. The plates were analysed by reading out the absorbance values at 570 nm and 650 nm wavelengths. The values of IC50 (concentration of compound producing a 50% cell mortality) was taken from the diagram by means of interpolation for a 50% cell survival rate.

[2] = tested on: K562 cells (human chronic myelogenous leukaemia); assay: MTT cytotoxicity test, K562 cells; assay type: cell-based; conditions: for toxicity to K562 cells (in words): 48 hours of incubation; for IC50: Homo sapiens, MTT, 48h incubation
Method: as §1

[3] = tested on: HL60 cells (human acute myelogenous leukaemia); assay: MTT cytotoxicity test, HL60 cells; assay type: cell-based; conditions: for toxicity to HL60 cells (in words): 48 hours of incubation; for IC50: Homo sapiens, HL-60, MTT, 48h incubation
Method: as §1

[4] = tested on: HUVEC cells (normal human endothelial cells); assay: MTT cytotoxicity test, normal HUVEC cells; assay type: cell-based; conditions: for toxicity to normal HUVEC cells (in words): 48 hours of incubation; for IC50: Homo sapiens, MTT, 48h incubation
Method: as §1

caspase 3 and 7 = assay: Apo-ONE Homogeneous Caspase-3/7 Assay in K562 cells; assay type: cell-based, human
Method: The above mentioned toxicity of compound 1a was tested for its origin, i.e. induction of necrosis or apoptosis in the K562 cells of chronic myelogenous leukaemia. Accordingly: • K562 cells in RPMI 1640 medium containing a 10% calf foetal serum and antibiotics, were disseminated on a 96-well plate, in the amount of 20 x 10^3 cells per well. Cells were cultured for 24 hours in the incubator (5% CO2; 37°C). • Compound 1a was dissolved in DMSO and added to the cell medium; final concentration in the cell culture was 25 μM (5 x IC50). Negative control was established by means of cells cultured in the presence of DMSO at the concentration of 1%. Positive control was established by means of cells cultured in the presence of 1 μM staurosporin, a strong apoptosis inductor. The cells were incubated with the compounds for 18 hours in the incubator (5% CO2; 37°C). • The test to determine the activity of […] […] Due to proteolytic activity of caspases, the pro-fluorescent substrate was transformed into a fluorescent product the amount of which could be determined by means of fluorescence intensity measurement. • Fluorescence intensity in each well was measured on the plate by means of FLUOStar Omega (BMG-Labtech, Germany) plate reader, at the exciting light wavelength of 485 nm and emission of 520 nm. Fluorescence intensity was proportional to the activity of caspase 3 and 7 in the sample.

[5] = tested on: K562 cells (human chronic myelogenous leukaemia); conditions: comparison value for cis-platinum; cited from earlier work

Row | Structure (SMILES) | toxicity to HeLa cells (in words) [1] | IC50 [1] [µM] | toxicity to K562 cells (in words) [2] | IC50 [2] [µM] | toxicity to HL60 cells (in words) [3] | IC50 [3] [µM] | toxicity to normal HUVEC cells (in words) [4] | IC50 [4] [µM] | activity of caspase 3 and 7 (caspase 3 and 7; 25 µM, 18 hours incubation, compared with reference cells (K562 and K562+DMSO), Fig. 1) | activity of caspases 3 and 7 (caspase 3 and 7; 1a concentration = 25 µM, incubation time = 24h) | IC50 value against K562 cells [5]
1 | COc1cc2c(CBr)c(C(C)=O)oc2c(C(C)=O)c1OC [Compound 1a, 1,1'-[3-(bromomethyl)-5,6-dimethoxy-1-benzofuran-2,7-diyl] diethanon] | toxic to neither | > 1000 | Strong toxicity | 5 | Strong toxicity | 0.1 | not toxic | > 1000 | higher | increased | 
2 | COC(=O)c1c(C)oc2cc(C(=O)C(Br)Br)c(O)c(Br)c12 [Compound 1b] | toxic | 9 | toxic | 1 | toxic | 4 | not toxic | > 1000 |  |  | 
3 | COC(=O)c1c(C)oc2cc(C(=O)C(Br)Br)c(OC)cc12 [Compound 1c] | toxic | 1 | toxic | 1 | toxic | 4 | not toxic | > 1000 |  |  | 
4 | COC(=O)c1c(C)oc2cc(C(=O)C(Cl)Cl)c(O)c(Cl)c12 [Compound 1e] | specifically toxic | 10 | not toxic | > 1000 | specifically toxic | 3 | not toxic | > 1000 |  |  | 
5 | N.N.[Cl][Pt][Cl] [cis-platinum] |  |  |  |  |  |  |  |  |  |  | several to several dozens
